Experimental data from ChEMBL document CHEMBL5614441, “Anticancer potential of active alkaloids and synthetic analogs derived from marine invertebrates” (Eur J Med Chem, 2024).

Key:
[1] = Cytotoxicity against p53-/- transgenic mouse derived T11 cells assessed as cell viability measured after 48 hrs by Cell Titer Glo assay; assay type: functional, cell-based; details: T11, 48 h
[2] = tested on: DU-145; assay: Antiproliferative activity against human DU-145 cells assessed as inhibition of cell proliferation measured after 2 to 4 hrs incubation by MTT assay; assay type: functional, cell-based
[3] = tested on: PC-3; assay: Antiproliferative activity against human PC-3 cells assessed as inhibition of cell proliferation measured after 2 to 4 hrs incubation by MTT assay; assay type: functional, cell-based
[4] = tested on: A549; assay: Cytotoxicity against human A549 cells assessed as cell viability measured after 24 hrs incubation by MTT assay; assay type: functional, cell-based; details: A549, 24 h
[5] = tested on: HCT-116; assay: Antiproliferative activity against human HCT116 cells assessed as inhibition of cell proliferation measured after 2 to 4 hrs incubation by MTT assay; assay type: functional, cell-based
[6] = tested on: NCI-H292; assay: Cytotoxicity against human NCI-H292 cells; assay type: functional, cell-based
[7] = tested on: NCI-H460; assay: Cytotoxicity against human NCI-H460 cells; assay type: functional, cell-based
[8] = tested on: BT-474; assay: Anticancer activity against human BT-474 cells assessed as cell viability measured after 48 hrs by MTT assay; assay type: functional, cell-based; details: BT-474, 48 h
[9] = biological target: Hepatocyte growth factor receptor (Homo sapiens, UniProt P08581); assay: Inhibition of c-Met phosphorylation in human BT-474 cells using Z-LYTE Tyr6 peptide substrate measured after 1 hr incubation by Z-LYTE c-Met Kinase assay; assay type: cell-based
Hepatocyte growth factor receptor, sequence (P08581 whole entry): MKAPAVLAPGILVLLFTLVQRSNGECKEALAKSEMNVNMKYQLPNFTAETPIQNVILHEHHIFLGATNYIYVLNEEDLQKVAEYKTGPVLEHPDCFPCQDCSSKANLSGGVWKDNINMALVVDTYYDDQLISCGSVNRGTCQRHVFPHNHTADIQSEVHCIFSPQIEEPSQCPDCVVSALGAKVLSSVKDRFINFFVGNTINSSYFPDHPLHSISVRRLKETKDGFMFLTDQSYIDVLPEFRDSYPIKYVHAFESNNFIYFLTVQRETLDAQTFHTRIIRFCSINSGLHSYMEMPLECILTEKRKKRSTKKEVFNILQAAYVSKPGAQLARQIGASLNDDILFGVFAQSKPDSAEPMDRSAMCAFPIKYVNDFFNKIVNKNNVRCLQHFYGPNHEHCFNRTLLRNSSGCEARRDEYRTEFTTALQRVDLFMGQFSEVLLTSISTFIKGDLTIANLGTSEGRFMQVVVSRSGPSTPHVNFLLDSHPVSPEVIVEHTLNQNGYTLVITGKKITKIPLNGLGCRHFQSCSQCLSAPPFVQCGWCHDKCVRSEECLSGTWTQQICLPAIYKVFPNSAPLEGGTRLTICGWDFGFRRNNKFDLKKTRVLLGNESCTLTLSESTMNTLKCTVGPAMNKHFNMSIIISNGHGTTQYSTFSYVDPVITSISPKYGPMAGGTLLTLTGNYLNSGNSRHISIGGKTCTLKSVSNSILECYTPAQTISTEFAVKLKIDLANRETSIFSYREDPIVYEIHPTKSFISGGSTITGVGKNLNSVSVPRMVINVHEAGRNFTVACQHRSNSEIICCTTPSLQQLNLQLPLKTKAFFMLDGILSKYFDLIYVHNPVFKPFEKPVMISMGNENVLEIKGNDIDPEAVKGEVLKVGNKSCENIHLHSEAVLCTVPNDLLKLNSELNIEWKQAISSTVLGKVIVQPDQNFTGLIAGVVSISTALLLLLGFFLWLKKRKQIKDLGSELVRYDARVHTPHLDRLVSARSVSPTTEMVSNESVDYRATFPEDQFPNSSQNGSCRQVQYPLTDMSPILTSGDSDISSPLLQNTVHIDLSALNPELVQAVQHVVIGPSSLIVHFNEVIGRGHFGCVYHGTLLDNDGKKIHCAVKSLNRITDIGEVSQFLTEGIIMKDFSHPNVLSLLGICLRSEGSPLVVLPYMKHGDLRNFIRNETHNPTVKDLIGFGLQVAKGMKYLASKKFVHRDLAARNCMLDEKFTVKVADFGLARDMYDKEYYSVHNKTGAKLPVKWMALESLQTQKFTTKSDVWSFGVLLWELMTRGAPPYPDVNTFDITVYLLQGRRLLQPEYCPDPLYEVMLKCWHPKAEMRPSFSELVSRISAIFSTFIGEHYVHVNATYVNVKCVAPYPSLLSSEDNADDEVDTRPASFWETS

[10] = tested on: CWR22R; assay: Cytotoxicity against human 22Rv1 cells assessed as cell viability measured after 48 hrs incubation by MTT assay; assay type: functional, cell-based; details: 22Rv1, 48 h
[11] = tested on: CWR22R; assay: Cytotoxicity against human 22Rv1 cells assessed as cell viability measured after 24 hrs incubation followed by incubated 3 hrs with MTS reagent by MTS assay; assay type: functional, cell-based
[12] = tested on: PC-3; assay: Cytotoxicity against human PC-3 cells assessed as cell viability measured after 24 hrs incubation followed by incubated 3 hrs with MTS reagent by MTS assay; assay type: functional, cell-based
[13] = tested on: MCF7; assay: Cytotoxicity against human MCF7 cells assessed as cell killing by SRB colorimetric assay; assay type: functional, cell-based
[14] = tested on: MCF7; assay: Cytotoxicity against human MCF7 cells assessed as cell viability measured after 48 hrs by MTT cell proliferation assay; assay type: functional, cell-based; details: MCF7, 48 h
[15] = tested on: MDA-MB-231; assay: Cytotoxicity against human MDA-MB-231 cells assessed as cell viability measured after 48 hrs by MTT assay; assay type: functional, cell-based; details: MDA-MB-231, 48 h
[16] = tested on: MDA-MB-231; assay: Cytotoxicity against human MDA-MB-231 cells assessed as cell growth inhibition incubated for 72 hrs by alamarblue staining based assay; assay type: functional; details: MDA-MB-231, 72 h
[17] = tested on: MDA-MB-231; assay: Cytotoxicity against human MDA-MB-231 cells measured after 24 to 72 hrs by MTT cell proliferation assay; assay type: functional, cell-based
[18] = tested on: SW480; assay: Cytotoxicity against human SW480 cells assessed as cell growth measured after 24 hrs incubation by Sulforhodamine B (SRB) assay; assay type: functional, cell-based; details: SW480, 24 h
[19] = tested on: SW-620; assay: Cytotoxicity against human SW620 cells assessed as cell growth measured after 24 hrs incubation by Sulforhodamine B (SRB) assay; assay type: functional, cell-based; details: SW-620, 24 h

With `CC[C@H]1C=CCC[C@@]2(C[C@@H]3CC[C@@H]4[C@H](C(=O)OCCCCCCCCCCCCCCCC(=O)N(CCCN)C[C@@H](O)CCN)[C@]5(CCC[C@@H](C)O5)NC(=N2)N34)O1` the IC50 [1] was 0.09 µM.
For `COC1=C(Br)[C@H](O)[C@](O)(CC#N)C=C1Br`, the IC50 [2] was 0.54 µM and the IC50 [3] was 0.12 µM.
Work on `C/C=C(/C)C(=O)OC[C@H]1c2c(c(O)c(C)c3c2OCO3)C[C@H]2[C@H]3C4=C(C[C@@H]([C@H](C#N)N12)N3C)C(=O)C(C)=C(OC)C4=O` yielded an IC50 [4] of 25 µM.
Compound `CC[C@@H]1CCCC[C@]2(C[C@H]3CC[C@@]4(O)[C@@H](C(=O)OCCCCCCCCCCCCCCCCC(=O)N(CCCN)C[C@@H](O)CCN)[C@@]5(CCC[C@H](C)O5)N=C(N2)N34)O1` has an IC50 [5] of 4 µM.
In the case of `C/C=C(/C)C(=O)OC[C@H]1c2c(O)c(OC)c(C)c(OC(=O)/C=C/c3ccccc3)c2C[C@H]2[C@H]3C4=C(C[C@@H]([C@H](C#N)N12)N3C)C(=O)C(C)=C(OC)C4=O`, the IC50 [6] is reported as 14.6 µM and the IC50 [7] is reported as 14.6 µM.
`[O-][N+]12CCC[C@]3(O)CCCCCC[C@H]4CCN5CCC[C@@H](CCCCCC[C@@H](CC1)O[C@@H]32)[C@@H]5O4` (some centres not stated) showed an IC50 [8] of 15.2 µM and an IC50 [9] of 19.9 µM.
In the case of `CCC/C=C\CC[C@@H](O)C[C@H]1CCC2=C(C(=O)OCCCCN(O)C(=N)N)[C@H](CC/C=C\CCC)NC(=N)N21`, the IC50 [10] is reported as 5 µM.
`O=C1c2ccc(Br)cc2-[n+]2ccc3c([nH]c4cc(Br)ccc43)c21` gave an IC50 [11] of 0.69 µM and an IC50 [12] of 7.28 µM.
For `O=C(Cc1c[nH]c2ccccc12)N/N=C1\C(=O)Nc2ccc([N+](=O)[O-])cc21`, the IC50 [13] was 0.44 µM.
Compound `Cn1c2ccccc2c2cc(C3=NCCc4c3[nH]c3ccccc43)ccc21` has an IC50 [14] of 5.48 µM.
For `CCC/C=C\CC[C@@H](O)C[C@H]1CCC2=C(C(=O)OCCCCN(O)C(=N)N)[C@H](CC/C=C\CCC)NC(N)=[N+]21`, the IC50 [10] was 5 µM.
With `CC[C@@H]1C=CCC[C@]2(C[C@H]3CC[C@@]4(O)[C@@H](C(=O)OCCCCCCCCCCCCCCCC(=O)N(CCCN)C[C@@H](O)CCN)[C@@]5(CCC[C@H](C)O5)N=C(N2)N34)O1` the IC50 [5] was 4.7 µM.
In the case of `CN1C(=O)/C(=N\NC(=O)Cc2c[nH]c3ccccc23)c2ccccc21`, the IC50 [13] is reported as 1.28 µM.
`O=C1c2cccc(Cl)c2-[n+]2ccc3c([nH]c4ccccc43)c21` gave an IC50 [15] of 0.3 µM.
In the case of `N=C(N)NCCCCNC(=O)[C@@]1(O)[C@H](Cc2c[nH]c3cc(Br)ccc23)[C@@](O)(Cc2c[nH]c3cc(Br)ccc23)C(=O)N1CCCCNC(=N)N` [EUSYNSTYELAMIDE B], the IC50 [16] is reported as 5 µM.
`COc1cc2ccnc3c2c(c1O)N(C)C=C3` [ISOAAPTAMINE] showed an IC50 [17] of 30.1 µM.
Compound `Cn1ccc2c(c1=O)C(=O)c1nccc3c1c-2nc1ccccc13` [NEOAMPHIMIDINE] has an IC50 [18] of 0.006 µM and an IC50 [19] of 0.06 µM.
